Consider two compounds from US5126258A (priority 1988, dated 1992).

One series deals with 1209. Put plainly: Hydrolysis of reactant ligands by receptor 12C9 (column head prints 1209). Particulars: for hydrolysis by 1209: pH 8.0, receptor/ligand uM, time h: 17 1/10, 2, 18 2/10, 24, 20 2/10, 0.33, 5 1/5, 0.33, 22 5/10, 3.5, preliminary. Format: biochemical, mouse. The method in brief: (§1)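 Reactant ligand was incubated with receptor in 50 mM phosphate buffer, pH 8.0 (some reactions pH 7.2), for the stated hours. The percentage of ligand consumed was measured by C18 HPLC with acetonitrile/water plus 0.1 percent trichloroacetic acid, or by fluorescence for some substrates, alongside spontaneous hydrolysis.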

The nature of series [1]: Spontaneous (uncatalyzed, background) hydrolysis. Format: physicochemical. Particulars: for Spon. (spontaneous hydrolysis): pH 8.0, 50 mM phosphate, time (h): 17 2, 18 24, 20 0.33, 5 0.33, 22 3.5. The method in brief:
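Background (uncatalyzed) hydrolysis of ester substrates measured in 50 mM phosphate buffer, pH 8.0, without antibody, as percentage of reactant consumed over the stated period. Quantified by C18 HPLC (acetonitrile/water with 0.1% trichloroacetic acid); Compounds 5 and 20 followed by fluorescence (ex 355 nm, em 455 nm).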

The test system of a further series is 22F5. The series can be described thus: Hydrolysis of reactant ligands by receptor 22F5. Format: biochemical, mouse. The following applies: for hydrolysis by 22F5: pH 8.0, receptor/ligand uM, time h: 17 1/10, 2, 18 2/10, 24, 20 2/10, 0.33, 5 1/5, 0.33, 22 5/10, 3.5, preliminary. Put shortly:
as §1

A further series has as its system 44A2. The series can be described thus: Hydrolysis of reactant ligands by receptor 44A2. Format: biochemical, mouse. Particulars: for hydrolysis by 44A2: pH 8.0, receptor/ligand uM, time h: 17 1/10, 2, 18 2/10, 24, 20 2/10, 0.33, 5 1/5, 0.33, 22 5/10, 3.5, preliminary. The method in brief: as §1
Another series concerns 7E5. The series can be described thus: Hydrolysis of reactant ligands by receptor 7E5. Format: biochemical, mouse. The following applies: for hydrolysis by 7E5: pH 8.0, receptor/ligand uM, time h: 17 1/10, 2, 18 2/10, 24, 20 2/10, 0.33, 5 1/5, 0.33, 22 5/10, 3.5, preliminary. The method in brief: as §1
The subject of a further series is 13E10. The series can be described thus: Hydrolysis of reactant ligands by receptor 13E10. Format: biochemical, mouse. The following applies: for hydrolysis by 13E10: pH 8.0, receptor/ligand uM, time h: 17 1/10, 2, 18 2/10, 24, 20 2/10, 0.33, 5 1/5, 0.33, 22 5/10, 3.5, preliminary. The method in brief: as §1
Another series has as its system 17G8. The series can be described thus: Hydrolysis of reactant ligands by receptor 17G8. Format: biochemical, mouse. The method in brief:
as §1

Another series deals with 37G2. The series can be described thus: Hydrolysis of reactant ligands by receptor 37G2. Format: biochemical, mouse. Particulars: for hydrolysis by 37G2: pH 8.0, receptor/ligand uM, time h: 17 1/10, 2, 18 2/10, 24, 20 2/10, 0.33, 5 1/5, 0.33, 22 5/10, 3.5, preliminary. The method in brief:
as §1

Setting [2] is: pH 7.2, 1 uM receptor, 10 uM ligand, 2 h.

Turning to `CC(=O)Nc1ccc(CC(=O)Oc2cccc3ccccc23)cc1` [Compound 17], the “hydrolysis by 1209, pH 7.2” value in the series on 1209 (setting [2]) is 35 percentage of reactant ligand. In addition, in the series with 1209, the “hydrolysis by 1209” value is listed as 55 percentage of reactant ligand. In addition, the “Spon. (spontaneous hydrolysis), pH 7.2” value in series [1] (pH 7.2, 50 mM phosphate, 2 h) is given as 4 percentage of reactant ligand. Also, the “Spon. (spontaneous hydrolysis)” value in series [1] is 7 percentage of reactant ligand. Also, the “hydrolysis by 22F5, pH 7.2” value with 22F5 (setting [2]) is 16 percentage of reactant ligand. Besides, the “hydrolysis by 22F5” value in the series on 22F5 is recorded as 51 percentage of reactant ligand. The “hydrolysis by 44A2, pH 7.2” value with 44A2 (setting [2]) is 19 percentage of reactant ligand. In addition, in the series on 44A2, the “hydrolysis by 44A2” value is 62 percentage of reactant ligand. In the series on 7E5 (setting [2]), the “hydrolysis by 7E5, pH 7.2” value is listed as 35 percentage of reactant ligand. Moreover, the “hydrolysis by 7E5” value in the series with 7E5 was 30 percentage of reactant ligand. Further, the “hydrolysis by 13E10, pH 7.2” value with 13E10 (setting [2]) is reported as 33 percentage of reactant ligand. The “hydrolysis by 13E10” value in the series with 13E10 is 32 percentage of reactant ligand. Besides, the “hydrolysis by 17G8, pH 7.2” value in the series on 17G8 (setting [2]) is given as 15 percentage of reactant ligand. Besides, the “hydrolysis by 37G2, pH 7.2” value with 37G2 (setting [2]) is on record as 39 percentage of reactant ligand. Also, in the series on 37G2, the “hydrolysis by 37G2” value is 60 percentage of reactant ligand.

As for `O=C(Cc1ccc(NC(=O)C(F)(F)F)cc1)Oc1ccc2ccc(=O)oc2c1` [Compound 5], the “hydrolysis by 1209” value in the series with 1209 was 11 percentage of reactant ligand. Moreover, the “spontaneous rate of hydrolysis” value in series [1] (above pH 8.0) is listed as “rapid”. Besides, the “Spon. (spontaneous hydrolysis)” value in series [1] was 5 percentage of reactant ligand. Further, in the series with 22F5, the “hydrolysis by 22F5” value is listed as 48 percentage of reactant ligand. In the series on 44A2, the “hydrolysis by 44A2” value is 47 percentage of reactant ligand. In the series on 7E5, the “hydrolysis by 7E5” value is recorded as 8 percentage of reactant ligand. Besides, in the series on 13E10, the “hydrolysis by 13E10” value is given as 13 percentage of reactant ligand. Also, the “hydrolysis by 17G8” value with 17G8 (pH 8.0, receptor/ligand uM, time h: 18 2/10, 24, 20 2/10, 0.33, 5 1/5, 0.33, 22 5/10, 3.5, preliminary) is on record as 16 percentage of reactant ligand. Also, in the series with 37G2, the “hydrolysis by 37G2” value is 12 percentage of reactant ligand.
